Where two headings read alike, the source gives them in different places.
Experiments:
Type in all cases: in vivo, human
[1] = system: healthy, cyclic women; experiment: Diameter of the largest follicle-like structure (FLS) by transvaginal ultrasonography
Description: The tablets prepared in Example 1 were tested in a single-center, open-label, adaptive design study to evaluate the influence on hormonal and ovarian function and vaginal bleeding pattern of different higher dosages of LNG administered once daily for 28 days over two consecutive treatment cycles in healthy, cyclic women.
Subjects started study medication intake on the first day of menstrual bleeding after the pre-treatment cycle. One tablet was taken orally, around the same time every morning, during 56 consecutive days. Study visits were planned every three (±1) days from treatment day 3 (±1) until 27 (±1) and from day 31 (±1) until day 55 (±1). At each visit the diameter of the largest follicle-like structure (FLS) and serum follicle-stimulating hormone (FSH), luteinizing hormone (LH), estradiol (E2) and P concentrations were measured.
(§1) If ovulation was observed during treatment, the subsequent luteal phase was evaluated using the Landgren criterion, i.e. the luteal phase was considered adequate when P concentrations were >16 nmol/L during at least 5 days (Landgren et al., “Hormonal effects of the 300 μg norethisterone (NET) minipill. 1. Daily steroid levels in 43 subjects during a pretreatment cycle and during the second month of NET administration,” Contraception 1980; 21: pp. 87-113). TVUS measurements of the diameter of the largest FLS (mean of two directions) were performed using a Voluson E8 Expert device (GE Medical Systems). Serum FSH, LH, E2, P and SHBG concentrations were determined by validated chemiluminescent microparticle immunoassays (Abbott, Longford, Ireland). All pharmacodynamic parameters were evaluated descriptively.

[2] = system: healthy, cyclic women; experiment: Serum SHBG concentrations
Description: (§2) Serum SHBG concentrations were determined after ovulation in the pre-treatment cycle, on treatment day 55 (±1) and at the end-of-study examination. Multiple-dose PK parameters were investigated in approximately 15 subjects per dose group, 5 of them having a BMI≥30 kg/m^2. Blood samples for LNG determination were taken on treatment day 55 (±1) pre-dose and 0.5, 1, 2, 3, 4, 6 and 24 hours after dosing.
as §1

[3] = Multiple-dose pharmacokinetics, plasma LNG concentrations on treatment day 55 (±1); conditions: for AUC(0-t) / Cmax: female, human, plasma, po
Description: as §2
Plasma LNG concentrations were determined by a validated liquid chromatography hyphenated with tandem mass spectrometry method (ACC, Leidersbach, Germany). PK parameters were derived by means of non-compartmental analysis. Analysis of Variance (ANOVA) was used as basis for the calculation of 90% confidence intervals; point estimates and confidence intervals for area under the curve (AUC) and maximum concentration (Cmax) values and comparison of treatments which were calculated by parametric analysis. Descriptive statistics for each treatment group and for subgroups with BMI<30 and ≥30 kg/m^2 were calculated.

[4] = system: healthy, cyclic women; experiment: Adverse events and tolerability
Description: At every visit, the subjects were questioned for adverse events and use of concomitant medication. Safety laboratory and pregnancy tests were performed at regular intervals during the study. Physical examinations were performed at screening and end of study.

[5] = LNG 0.095 mg per day, entire treatment period
[6] = LNG 0.095 mg per day, treatment period 1
[7] = LNG 0.095 mg per day, treatment period 2
[8] = LNG 0.115 mg per day, entire treatment period
[9] = LNG 0.115 mg per day, treatment period 1
[10] = LNG 0.115 mg per day, treatment period 2
[11] = LNG 0.135 mg per day, entire treatment period
[12] = LNG 0.135 mg per day, treatment period 1
[13] = LNG 0.135 mg per day, treatment period 2
[14] = LNG 0.095 mg per day, end of study (on average 22 days after last treatment)
[15] = LNG 0.095 mg per day, treatment day 55 ± 1
[16] = LNG 0.115 mg per day, end of study (on average 22 days after last treatment)
[17] = LNG 0.115 mg per day, treatment day 55 ± 1
[18] = LNG 0.135 mg per day, end of study (on average 22 days after last treatment)
[19] = LNG 0.135 mg per day, treatment day 55 ± 1
[20] = 0.095 mg per day oral over 55 ± 1 consecutive days, entire treatment group
[21] = 0.115 mg per day oral over 55 ± 1 consecutive days, entire treatment group
[22] = 0.135 mg per day oral over 55 ± 1 consecutive days, entire treatment group

AUC0-24, ss, Max [3, 20]: 23.2 ng·h/mL
AUC0-24, ss, Min [3, 20]: 7.29 ng·h/mL
Cmax, ss, Max [3, 20]: 3.12 ng/mL
Cmax, ss, Min [3, 20]: 0.903 ng/mL
AUC0-24, ss, Max [3, 21]: 26.1 ng·h/mL
AUC0-24, ss, Min [3, 21]: 5.58 ng·h/mL
Cmax, ss, Max [3, 21]: 2.83 ng/mL
Cmax, ss, Min [3, 21]: 0.73 ng/mL
AUC0-24, ss, Max [3, 22]: 30 ng·h/mL
AUC0-24, ss, Min [3, 22]: 10.2 ng·h/mL
Cmax, ss, Max [3, 22]: 3.23 ng/mL
Cmax, ss, Min [3, 22]: 1.14 ng/mL
Dose proportionality of total exposure over the dosing interval ([3]; 0.095, 0.115 and 0.135 mg per day, day 55±1): dose proportionality
AUC(0-t) ([3]; 0.095 mg per day, 0.095 mg per day oral over 55 ± 1 consecutive days, entire treatment group, read-out: AUC0-24, ss, Geometric Mean): 12.4 ng·h/mL
AUC(0-t) ([3]; 0.095 mg per day, 0.095 mg per day oral over 55 ± 1 consecutive days, entire treatment group, read-out: AUC0-24, ss, Mean): 13.1 ng·h/mL
AUC(0-t) ([3]; 0.095 mg per day, 0.095 mg per day oral over 55 ± 1 consecutive days, entire treatment group, read-out: AUC0-24, ss, Median): 11.8 ng·h/mL
Cmax ([3]; 0.095 mg per day, 0.095 mg per day oral over 55 ± 1 consecutive days, entire treatment group, read-out: Cmax, ss, Geometric Mean): 1.55 ng/mL
Cmax ([3]; 0.095 mg per day, 0.095 mg per day oral over 55 ± 1 consecutive days, entire treatment group, read-out: Cmax, ss, Mean): 1.65 ng/mL
Cmax ([3]; 0.095 mg per day, 0.095 mg per day oral over 55 ± 1 consecutive days, entire treatment group, read-out: Cmax, ss, Median): 1.63 ng/mL
AUC(0-t) ([3]; 0.095 mg per day, 0.095 mg per day oral over 55 ± 1 consecutive days, subgroup BMI < 30 kg/m2, read-out: AUC0-24, ss, Geometric mean): 14 ng·h/mL
Cmax ([3]; 0.095 mg per day, 0.095 mg per day oral over 55 ± 1 consecutive days, subgroup BMI < 30 kg/m2, read-out: Cmax, ss, Geometric mean): 1.83 ng/mL
AUC(0-t) ([3]; 0.095 mg per day, 0.095 mg per day oral over 55 ± 1 consecutive days, subgroup BMI ≥ 30 kg/m^2, read-out: AUC0-24, ss, Geometric mean): 9.2 ng·h/mL
Cmax ([3]; 0.095 mg per day, 0.095 mg per day oral over 55 ± 1 consecutive days, subgroup BMI ≥ 30 kg/m^2, read-out: Cmax, ss, Geometric mean): 1.05 ng/mL
AUC(0-t) ([3]; 0.115 mg per day, 0.115 mg per day oral over 55 ± 1 consecutive days, entire treatment group, read-out: AUC0-24, ss, Geometric Mean): 13.8 ng·h/mL
AUC(0-t) ([3]; 0.115 mg per day, 0.115 mg per day oral over 55 ± 1 consecutive days, entire treatment group, read-out: AUC0-24, ss, Mean): 14.8 ng·h/mL
AUC(0-t) ([3]; 0.115 mg per day, 0.115 mg per day oral over 55 ± 1 consecutive days, entire treatment group, read-out: AUC0-24, ss, Median): 12.9 ng·h/mL
Cmax ([3]; 0.115 mg per day, 0.115 mg per day oral over 55 ± 1 consecutive days, entire treatment group, read-out: Cmax, ss, Geometric Mean): 1.67 ng/mL
Cmax ([3]; 0.115 mg per day, 0.115 mg per day oral over 55 ± 1 consecutive days, entire treatment group, read-out: Cmax, ss, Mean): 1.79 ng/mL
Cmax ([3]; 0.115 mg per day, 0.115 mg per day oral over 55 ± 1 consecutive days, entire treatment group, read-out: Cmax, ss, Median): 1.81 ng/mL
AUC(0-t) ([3]; 0.115 mg per day, 0.115 mg per day oral over 55 ± 1 consecutive days, subgroup BMI < 30 kg/m2, read-out: AUC0-24, ss, Geometric mean): 16.3 ng·h/mL
Cmax ([3]; 0.115 mg per day, 0.115 mg per day oral over 55 ± 1 consecutive days, subgroup BMI < 30 kg/m2, read-out: Cmax, ss, Geometric mean): 2.03 ng/mL
AUC(0-t) ([3]; 0.115 mg per day, 0.115 mg per day oral over 55 ± 1 consecutive days, subgroup BMI ≥ 30 kg/m^2, read-out: AUC0-24, ss, Geometric mean): 9.32 ng·h/mL
Cmax ([3]; 0.115 mg per day, 0.115 mg per day oral over 55 ± 1 consecutive days, subgroup BMI ≥ 30 kg/m^2, read-out: Cmax, ss, Geometric mean): 1.05 ng/mL
AUC(0-t) ([3]; 0.135 mg per day, 0.135 mg per day oral over 55 ± 1 consecutive days, entire treatment group, read-out: AUC0-24, ss, Geometric Mean): 16.8 ng·h/mL
AUC(0-t) ([3]; 0.135 mg per day, 0.135 mg per day oral over 55 ± 1 consecutive days, entire treatment group, read-out: AUC0-24, ss, Mean): 17.5 ng·h/mL
AUC(0-t) ([3]; 0.135 mg per day, 0.135 mg per day oral over 55 ± 1 consecutive days, entire treatment group, read-out: AUC0-24, ss, Median): 16.9 ng·h/mL
Cmax ([3]; 0.135 mg per day, 0.135 mg per day oral over 55 ± 1 consecutive days, entire treatment group, read-out: Cmax, ss, Geometric Mean): 1.92 ng/mL
Cmax ([3]; 0.135 mg per day, 0.135 mg per day oral over 55 ± 1 consecutive days, entire treatment group, read-out: Cmax, ss, Mean): 2.01 ng/mL
Cmax ([3]; 0.135 mg per day, 0.135 mg per day oral over 55 ± 1 consecutive days, entire treatment group, read-out: Cmax, ss, Median): 1.93 ng/mL
AUC(0-t) ([3]; 0.135 mg per day, 0.135 mg per day oral over 55 ± 1 consecutive days, subgroup BMI < 30 kg/m2, read-out: AUC0-24, ss, Geometric mean): 17.6 ng·h/mL
Cmax ([3]; 0.135 mg per day, 0.135 mg per day oral over 55 ± 1 consecutive days, subgroup BMI < 30 kg/m2, read-out: Cmax, ss, Geometric mean): 2.14 ng/mL
AUC(0-t) ([3]; 0.135 mg per day, 0.135 mg per day oral over 55 ± 1 consecutive days, subgroup BMI ≥ 30 kg/m^2, read-out: AUC0-24, ss, Geometric mean): 15.3 ng·h/mL
Cmax ([3]; 0.135 mg per day, 0.135 mg per day oral over 55 ± 1 consecutive days, subgroup BMI ≥ 30 kg/m^2, read-out: Cmax, ss, Geometric mean): 1.52 ng/mL
Time at which maximum plasma LNG values were reached after dosing ([3]; study drug administration on day 55±1, all dosages): 1 h
SMILES: C#C[C@]1(O)CC[C@H]2[C@@H]3CCC4=CC(=O)CC[C@@H]4[C@H]3CC[C@@]21CC (racemic) [LNG, levonorgestrel]
Maximum FLS diameter, Mean ± SD ([1]; LNG 0.095 mg per day, BMI < 30 kg/m^2, entire treatment period): 22.5 ± 8.2 mm
Maximum FLS diameter, Mean ± SD ([1]; LNG 0.095 mg per day, BMI ≥ 30 kg/m^2, entire treatment period): 20.6 ± 6.9 mm
Maximum FLS diameter, Mean ± SD [1, 5]: 22.1 ± 7.9 mm
Maximum FLS diameter, Median [1, 5]: 22.5 mm
Maximum FLS diameter, Mean ± SD [1, 6]: 20.0 ± 8.6 mm
Maximum FLS diameter, Median [1, 6]: 20.6 mm
Maximum FLS diameter, Mean ± SD [1, 7]: 20.5 ± 7.5 mm
Maximum FLS diameter, Median [1, 7]: 20.2 mm
Maximum FLS diameter, Mean ± SD ([1]; LNG 0.115 mg per day, BMI < 30 kg/m^2, entire treatment period): 19.8 ± 7.5 mm
Maximum FLS diameter, Mean ± SD ([1]; LNG 0.115 mg per day, BMI ≥ 30 kg/m^2, entire treatment period): 27.9 ± 4.4 mm
Maximum FLS diameter, Mean ± SD [1, 8]: 21.4 ± 7.7 mm
Maximum FLS diameter, Median [1, 8]: 20.8 mm
Maximum FLS diameter, Mean ± SD [1, 9]: 20.4 ± 7.9 mm
Maximum FLS diameter, Median [1, 9]: 20.3 mm
Maximum FLS diameter, Mean ± SD [1, 10]: 19.9 ± 7.5 mm
Maximum FLS diameter, Median [1, 10]: 20.8 mm
Maximum FLS diameter, Mean ± SD ([1]; LNG 0.135 mg per day, BMI < 30 kg/m^2, entire treatment period): 18.4 ± 5.0 mm
Maximum FLS diameter, Mean ± SD ([1]; LNG 0.135 mg per day, BMI ≥ 30 kg/m^2, entire treatment period): 19.0 ± 7.1 mm
Maximum FLS diameter, Mean ± SD [1, 11]: 18.5 ± 5.3 mm
Maximum FLS diameter, Median [1, 11]: 18.1 mm
FLS diameter in one subject with possible abnormal ovulation ([1]; LNG 0.135 mg per day, one subject (BMI 20.4 kg/m^2), treatment day 3): 12.3 mm
Maximum FLS diameter, Mean ± SD [1, 12]: 16.6 ± 5.7 mm
Maximum FLS diameter, Median [1, 12]: 13.9 mm
Maximum FLS diameter, Mean ± SD [1, 13]: 17.4 ± 5.0 mm
Maximum FLS diameter, Median [1, 13]: 16.8 mm
SHBG, Mean ± SD [2, 14]: 49.9 ± 17.4 nmol/L
SHBG, Median [2, 14]: 47.7 nmol/L
SHBG, Mean ± SD [2, 15]: 27.7 ± 10.6 nmol/L
SHBG, Median [2, 15]: 25.5 nmol/L
SHBG, Mean ± SD [2, 16]: 48.1 ± 20.1 nmol/L
SHBG, Median [2, 16]: 46.7 nmol/L
SHBG, Mean ± SD [2, 17]: 23.9 ± 12.1 nmol/L
SHBG, Median [2, 17]: 18.9 nmol/L
SHBG, Mean ± SD [2, 18]: 58.6 ± 28.5 nmol/L
SHBG, Median [2, 18]: 47.8 nmol/L
SHBG, Mean ± SD [2, 19]: 24.0 ± 9.5 nmol/L
SHBG, Median [2, 19]: 23.7 nmol/L
Suppression of SHBG concentrations ([2]; all treatment groups, end of treatment period 2): approximately 60%
n acne events, possibly IMP related ([4]; 0.095 mg LNG, n subjects 30): 3
n acne events, possibly IMP related ([4]; 0.115 mg LNG, n subjects 29): 4
n acne events, possibly IMP related ([4]; 0.135 mg LNG, n subjects 29): 4
Tolerability of the study medication ([4]; LNG 0.095, 0.115 or 0.135 mg per day for 56 days): well tolerated
